For series [1], the system named is Helicobacter pylori. Briefly: Antibacterial activity against Helicobacter pylori ATCC 26695 incubated for 48 hrs by MTT assay. In kind it is functional, organism-based.
For another series, the system named is Clostridium perfringens. Briefly: Antibacterial activity against Clostridium perfringens ATCC 13124 incubated for 48 hrs under anaerobic condition by MTT assay. The format is functional.
The subject of series [2] is Helicobacter pylori. Briefly: Antibacterial activity against Helicobacter pylori P12 incubated for 48 hrs by MTT assay. The format is functional, organism-based.
In series [3] the test system is Staphylococcus aureus. Briefly: Antibacterial activity against Staphylococcus aureus ATCC 6538 incubated for 24 hrs by two fold serial dilution method. In kind it is functional.
Series [4] deals with Pseudomonas aeruginosa. Briefly: Antibacterial activity against Pseudomonas aeruginosa ATCC 13525 incubated for 24 hrs by two fold serial dilution method. In kind it is functional.
In series [5] the test system is Bacillus spizizenii. Briefly: Antibacterial activity against Bacillus subtilis ATCC 6633 incubated for 24 hrs by two fold serial dilution method. The format is functional.
Series [6] can be described thus: Acute oral toxicity in mouse assessed as induction of mortality measured once daily for 14 days. The note with it: in vivo, time 14 day.
For series [7], the system named is Escherichia coli. Briefly: Antibacterial activity against Escherichia coli ATCC 35218 incubated for 24 hrs by two fold serial dilution method. In kind it is functional.
A short description of series [8]: Acute oral toxicity in mouse assessed as behavioral changes measured once daily for 14 days. The following applies: in vivo, time 14 day.
Series [9] is described as follows: Inhibition of Escherichia coli N-terminal His-tagged FabH expressed in Escherichia coli BL21(DE3) by liquid scintillation counting method.
The nature of series [10]: Acute oral toxicity in mouse assessed as signs of gross toxicity measured once daily for 14 days. The note with it: in vivo, time 14 day.
Series [11] deals with Helicobacter pylori. Briefly: Antimicrobial activity against Helicobacter pylori clinical isolate4 for 3 days by agar dilution method. In kind it is functional. The note with it: clinical isolate4, 72 h, time 3 day.
Series [12] concerns Helicobacter pylori. Briefly: Antimicrobial activity against Helicobacter pylori clinical isolate1 for 3 days by agar dilution method. The format is functional. The note with it: clinical isolate1, 72 h, time 3 day.
Series [13] has as its system Helicobacter pylori. Briefly: Antimicrobial activity against Helicobacter pylori SS1 clinical isolate2 for 3 days by agar dilution method. The format is functional. The following applies: SS1 clinical isolate2, 72 h, time 3 day.
The subject of series [14] is Helicobacter pylori. Briefly: Antimicrobial activity against Helicobacter pylori clinical isolate3 for 3 days by agar dilution method. In kind it is functional. The following applies: clinical isolate3, 72 h, time 3 day.
Series [15] concerns Helicobacter pylori. Briefly: Antimicrobial activity against Helicobacter pylori ATCC 43504 incubated for 3 days by agar dilution method. The format is functional. The following applies: NCTC 11637 = CCUG 17874 = ATCC 43504, 72 h, time 3 day.
Series [16] has as its system Helicobacter pylori. Briefly: Antimicrobial activity against Helicobacter pylori SS1 incubated for 3 days by agar dilution method. The following applies: SS1, 72 h, time 3 day. In kind it is functional.
The test system of the next series is Entamoeba histolytica. Briefly: Antiamoebic activity against Entamoeba histolytica HK9 ATCC 30015 incubated for 72 hrs by trypan blue staining based assay. The note with it: ATCC 30015, 72 h. The format is functional, organism-based.
Series [17] deals with Giardia intestinalis. Briefly: Antigiardial activity against Giardia intestinalis WB ATCC 30957 incubated for 72 hrs by trypan blue staining based assay. The format is functional, organism-based. The following applies: Giardia duodenalis, WB ATCC 30957, 72 h.
Series [18] relates to Bacillus spizizenii. Briefly: Antibacterial activity against Bacillus subtilis ATCC 6633 by MH media dilution method. The format is functional.
Series [19] is described as follows: Inhibition of Staphylococcus aureus TyrRS using L-tyrosine and tRNA as substrate preincubated for 10 mins followed by substrate addition by liquid scintillation counting method.
Series [20] deals with Escherichia coli. Briefly: Antibacterial activity against Escherichia coli ATCC 35218 by MH media dilution method. The format is functional.
The test system of series [21] is Staphylococcus aureus. Briefly: Antibacterial activity against Staphylococcus aureus ATCC 6538 by MH media dilution method. The format is functional.
The test system of series [22] is Pseudomonas aeruginosa. Briefly: Antibacterial activity against Pseudomonas aeruginosa ATCC 13525 by MH media dilution method. The format is functional.
The test system of another series is Trichomonas vaginalis. Briefly: Anti-trichomonas activity against Trichomonas vaginalis GT3 incubated for 48 hrs. In kind it is functional, organism-based. The note with it: GT3, 48 h.
The nature of series [23]: Selectivity index, ratio of CC50 for African green monkey Vero cells to IC50 for antigiardial activity against Trichomonas vaginalis GT3. In kind it is toxicity. The following applies: read-out: Ratio CC50/IC50.
Series [24] in a line: Selectivity index, ratio of CC50 for African green monkey Vero cells to IC50 for antigiardial activity against Giardia intestinalis MSS:0696:1. In kind it is toxicity. The following applies: read-out: Ratio CC50/IC50.
A short description of series [25]: Cytotoxicity against African green monkey Vero cells incubated for 48 hrs by sulforhodamine B method. The format is cell-based. The following applies: chlorocebus sabaeus.
For series [26], the system named is Giardia intestinalis. Briefly: Antigiardial activity against Giardia intestinalis MSS:0696:1 incubated for 48 hrs. The note with it: Giardia duodenalis, MSS:0696:1, 48 h. In kind it is functional, organism-based.

Here are results for 14 compounds from ChEMBL document CHEMBL4813920, “Metronidazole-conjugates: A comprehensive review of recent developments towards synthesis and medicinal perspective” (Eur J Med Chem, 2021).

Converted amounts (≈) assume the structure as drawn.

Turning to `Cc1ccc(C(C)C)cc1OCCn1c([N+](=O)[O-])cnc1C`, the results for the IC50 in the series with Helicobacter pylori [1] and with Helicobacter pylori [2] were 4.921 uM/ml and 0.0011 uM/ml, respectively. Further, the MIC in the series with Clostridium perfringens came out at 2.7 µM (≈ 0.819 µg/mL).
With `Cc1cc(C)nc(NS(=O)(=O)c2ccc(/N=C/c3ccc(C(=O)OCCn4c([N+](=O)[O-])cnc4C)cc3)cc2)n1`, the minimum inhibitory concentration (MIC) came out at 3.13 µg/mL (≈ 5.55 µM) against Staphylococcus aureus [3], 3.13 µg/mL (≈ 5.55 µM) in the series with Pseudomonas aeruginosa [4], 1.56 µg/mL (≈ 2.77 µM) against Bacillus spizizenii [5] and 1.56 µg/mL (≈ 2.77 µM) against Escherichia coli [7]. The LD50 at 336 h in series [6], in series [8] and in [10] was over 5000 mg/kg in each case. The IC50 in series [9] is 2.69 µM.
Consider `CC1(C)S[C@@H]2[C@H](NC(=O)[C@H](N)c3ccc(O)cc3)C(=O)N2[C@H]1C(=O)O` [AMOXICILLIN], for which the minimal inhibitory concentration (MIC) is 1.07 µM (≈ 0.391 µg/mL) against Helicobacter pylori [11]; 1.07 µM (≈ 0.391 µg/mL) with Helicobacter pylori [12]; 1.07 µM (≈ 0.391 µg/mL) in the series on Helicobacter pylori [13]; 1.07 µM (≈ 0.391 µg/mL) with Helicobacter pylori [14]; 0.14 µM (≈ 0.0512 µg/mL) against Helicobacter pylori [15]; 0.14 µM (≈ 0.0512 µg/mL) in the series with Helicobacter pylori [16].
Turning to `Clc1ccc2c(N3CCNCC3)ccnc2c1`, the IC50 with Entamoeba histolytica turned out to be 94.3 µM; in the series on Giardia intestinalis [17] it was 88.4 µM.
On to `Cc1ccnc(NS(=O)(=O)c2ccc(/N=C/c3ccc(C(=O)OCCn4c([N+](=O)[O-])cnc4C)cc3)cc2)n1`, for which the MIC with Staphylococcus aureus [3] is 12.5 µg/mL (≈ 22.7 µM); in the series with Pseudomonas aeruginosa [4], 12.5 µg/mL (≈ 22.7 µM); against Bacillus spizizenii [5], 6.25 µg/mL (≈ 11.4 µM); in the series with Escherichia coli [7], 3.13 µg/mL (≈ 5.7 µM). In addition, the LD50 at 336 h in series [6], in series [8] and in series [10] was over 5000 mg/kg in each case. In addition, the IC50 in series [9] worked out at 5.59 µM.
With `Cc1ccc(C(C)C)cc1OC(=O)Cn1c([N+](=O)[O-])cnc1C`, the figures for the IC50 in the series with Helicobacter pylori [1] and in the series on Helicobacter pylori [2] were 52.35 uM/ml and 35.17 uM/ml, respectively. In addition, the MIC in the series on Clostridium perfringens worked out at 0.0094 µM (≈ 0.00298 µg/mL).
`COc1ccc(-c2cc(C(=O)OCCn3c([N+](=O)[O-])cnc3C)nn2-c2ccccc2)cc1`: the minimal inhibitory concentration (MIC) was 3.91 µg/mL (≈ 8.74 µM) against Bacillus spizizenii [18], 1.96 µg/mL (≈ 4.38 µM) in the series on Escherichia coli [20], 3.91 µg/mL (≈ 8.74 µM) in the series on Staphylococcus aureus [21] and 0.98 µg/mL (≈ 2.19 µM) in the series on Pseudomonas aeruginosa [22]. Further, the IC50 in series [19] amounted to 0.92 µM.
In the case of `COc1ccc(-c2cc(C(=O)OCCn3c([N+](=O)[O-])cnc3C)nn2-c2ccc(Cl)cc2)cc1`, the minimum inhibitory concentration (MIC) in the series with Bacillus spizizenii [18] amounted to 7.82 µg/mL (≈ 16.2 µM); against Escherichia coli [20], 3.91 µg/mL (≈ 8.11 µM); in the series on Staphylococcus aureus [21], 7.82 µg/mL (≈ 16.2 µM); against Pseudomonas aeruginosa [22] it was 1.96 µg/mL (≈ 4.07 µM). This compound also had an IC50 in [19] of 1.67 µM.
In the case of `O=C(O)/C=C/c1ccc([N+](=O)[O-])o1`, the IC50 in the series with Entamoeba histolytica amounted to 55.7 µM; with Giardia intestinalis [17], 67.5 µM.
For the compound `Cc1ncc([N+](=O)[O-])n1CCOC(=O)Nc1ccc([N+](=O)[O-])cc1`, the IC50 came to 9.99 µM in the series on Trichomonas vaginalis and 0.86 µM with Giardia intestinalis [26]. Further, the selectivity ratio in series [23] is over 10; in series [24], over 116. In series [25], this compound displayed a CC50 at 48 h of over 100 µM.
In the case of `Cc1ncc([N+](=O)[O-])n1CCOc1ccc(C(=O)Cc2ccc([N+](=O)[O-])cc2)c(O)c1O`, the MIC in the series on Helicobacter pylori [11] was 1.76 µM (≈ 0.779 µg/mL); in the series on Helicobacter pylori [12], 1.76 µM (≈ 0.779 µg/mL); in the series with Helicobacter pylori [13], 0.88 µM (≈ 0.389 µg/mL); with Helicobacter pylori [14] it was 1.76 µM (≈ 0.779 µg/mL); in the series with Helicobacter pylori [15] it was 1.76 µM (≈ 0.779 µg/mL); in the series on Helicobacter pylori [16], 1.76 µM (≈ 0.779 µg/mL).
As for `Cc1ncc([N+](=O)[O-])n1CC(C)OC(=O)c1ccc(/C=N/c2ccc(S(=O)(=O)NC(=N)N)cc2)cc1` (stereo unspecified), the MIC against Staphylococcus aureus [3] is 12.5 µg/mL (≈ 24.3 µM); in the series on Pseudomonas aeruginosa [4], 25 µg/mL (≈ 48.7 µM); against Bacillus spizizenii [5] it was 3.13 µg/mL (≈ 6.09 µM); with Escherichia coli [7] it was 3.13 µg/mL (≈ 6.09 µM). Further, the median lethal dose (LD50) at 336 h in series [6], in series [8] and in [10] was over 5000 mg/kg each time. Moreover, the IC50 in [9] stood at 4.93 µM.
As to `Cc1ncc([N+](=O)[O-])n1CCOC(=O)Nc1ccccc1`, the IC50 was 0.09 µM in the series with Trichomonas vaginalis and 0.98 µM in the series with Giardia intestinalis [26]. The selectivity ratio in series [23] was 1110; in series [24], over 102. Besides, the cytotoxic concentration (CC50) at 48 h in series [25] is over 100 µM.
As to `Cc1ncc([N+](=O)[O-])n1CCOC(=O)NC1CCCCC1`, the figures for the IC50 in the series with Trichomonas vaginalis and in the series with Giardia intestinalis [26] were 0.06 µM and 0.46 µM, respectively. Further, the selectivity ratio in series [23] was 1670; in [24], over 217. In addition, in series [25], the CC50 at 48 h is over 100 µM.
